{
  "source": "patent US20030125252A1",
  "about": "“Compositions and methods for affecting osteogenesis” (priority 2002, published 2003)",
  "key": {"[1]": {"tested_on": "MC3T3-E1 cells", "assay": "Histological analysis of mineralization (Alizarin Red S) in MC3T3-E1 cultures", "type": "cell-based, mouse", "settings": "for mineralization (Alizarin Red S staining), concentration dependence: MC3T3-E1 mineralizing cultures", "protocol": "MC3T3-E1 cells were maintained in Minimum Essential Medium Eagle-modification supplemented with 10% fetal bovine serum (Gibco-BRL) and subcultured as previously described (20). For mineralization, cultures of MC3T3-E1 cells were supplemented with ascorbate (50 μg/ml) and β-glycerolphosphate (β-GP, 10 mM), and the medium was changed every 3 days. These compounds, in addition to ligands, were added to the media once the cultures had reached confluence. MC3T3-637OC stable transfectants were cultured in the same manner and supplemented with active G418 (700 μg/ml). COSP7 cells were cultured in Dulbecco's Modified Eagle's Medium containing 10% FBS and antibiotics. All-trans RA was obtained from Sigma. 4-[E-2-(5,6,7,8-Tetrahydro-5,5,8,8-tetramethyl-2-naphthalenyl)-1-propenyl] benzoic acid (TTNPB), 1,25 VD3 and 9-cis RA were purchased from BioMol.\nMC3T3-E1 cells were seeded at 2×10^4 cells/well into 12-well plates, and medium was changed at three-day intervals for a period of 4 weeks. Matrix calcification within the cultures was measured by histological staining with Alizarin Red S (Sigma). Cells were fixed for 10 min in equal parts of 40% formaldehyde and methanol, rinsed briefly in 50% ethanol followed by a rinse in water. Samples were then stained with Alizarin Red S (2% w/v, pH 4.2) for 2 min, followed by a 30-second wash in acetone and allowed to air dry. A Zeiss SV11 dissection microscope connected to a Sony DXC-950 video camera was used to capture digital images. The extent of mineralization for each culture was determined by calculating the percentage of surface area occupied by Alizarin Red S-stained material using Northern Eclipse image analysis software (Empix Imaging Inc.). All images were captured from the center of the well at low magnification, a field which represents ˜65% of the total surface area of the well."}, "[2]": {"tested_on": "MC3T3-E1 cells", "assay": "Cell viability, MTT assay", "type": "cell-based, mouse", "settings": "for cell viability: MC3T3-E1 early stage cultures, data not shown", "protocol": "Cell viability was measured in MC3T3-E1 cells using the 3-[4,5-dimethylthiazol-2-yl]-2,5-diphenyltetrazolium bromide (MTT) assay in 96-well plates as described in the Roche Molecular Biochemicals product information. Briefly, cells were cultured to confluence, at which time various concentrations and combinations of ligands were added to the cultures followed by incubation for 24 to 60 hr. MTT substrate to a final concentration of 0.5 mg/ml was added to each well and the incubation was extended for a further 4 hr. At this time, cells were solubilized overnight in 10% sodium dodecyl sulfate (SDS) in 0.01 M HCl and absorbance was measured at 595 nm using a 650 nm reference wavelength."}, "[3]": {"tested_on": "MC3T3-E1 cells", "assay": "Cell death, propidium iodide (PI) staining", "type": "cell-based, mouse", "settings": "for number of PI-stained cells (cell death): MC3T3-E1, single ligand", "protocol": "Cultures of MC3T3-E1 were initiated at sub-confluence (1-2×10^4 cells/well) in 24-well plates and allowed to reach confluence prior to the addition of ligands, β-GP and ascorbate. […] Cells were incubated in the presence of the dye for 5 minutes, and images were acquired using epifluorescence with a XF35 filter set (Omega Optical) at low magnification (50×). The number of fluorescent-positive cells per microscopic field (3 mm^2) was counted using Northern Eclipse imaging software."}, "[4]": {"tested_on": "normal human osteoblasts", "assay": "Normal human osteoblast cultures, mineralization (alizarin red S, Von Kossa)", "type": "cell-based", "settings": "1000 nM, versus control cultures"}, "[5]": {"molecular_target": "T1, RARγ (Homo sapiens, UniProt P13631)", "T1 sequence (P13631 1-454)": "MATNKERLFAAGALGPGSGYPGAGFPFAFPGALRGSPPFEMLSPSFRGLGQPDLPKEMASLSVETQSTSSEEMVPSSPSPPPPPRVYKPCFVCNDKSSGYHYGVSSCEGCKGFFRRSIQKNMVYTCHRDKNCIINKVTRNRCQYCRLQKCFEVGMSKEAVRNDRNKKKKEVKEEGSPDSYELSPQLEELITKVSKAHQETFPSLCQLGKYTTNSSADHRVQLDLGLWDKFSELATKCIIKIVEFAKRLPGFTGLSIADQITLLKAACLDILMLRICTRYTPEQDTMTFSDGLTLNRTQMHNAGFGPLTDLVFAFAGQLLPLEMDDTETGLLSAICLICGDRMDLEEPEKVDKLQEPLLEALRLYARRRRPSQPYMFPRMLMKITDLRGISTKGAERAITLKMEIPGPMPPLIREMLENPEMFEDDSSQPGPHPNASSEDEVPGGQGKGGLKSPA", "settings": "compared with RARα; cited from earlier work"}, "[6]": {"molecular_target": "T2, RARβ (Homo sapiens, UniProt P10826)", "T2 sequence (P10826 1-455)": "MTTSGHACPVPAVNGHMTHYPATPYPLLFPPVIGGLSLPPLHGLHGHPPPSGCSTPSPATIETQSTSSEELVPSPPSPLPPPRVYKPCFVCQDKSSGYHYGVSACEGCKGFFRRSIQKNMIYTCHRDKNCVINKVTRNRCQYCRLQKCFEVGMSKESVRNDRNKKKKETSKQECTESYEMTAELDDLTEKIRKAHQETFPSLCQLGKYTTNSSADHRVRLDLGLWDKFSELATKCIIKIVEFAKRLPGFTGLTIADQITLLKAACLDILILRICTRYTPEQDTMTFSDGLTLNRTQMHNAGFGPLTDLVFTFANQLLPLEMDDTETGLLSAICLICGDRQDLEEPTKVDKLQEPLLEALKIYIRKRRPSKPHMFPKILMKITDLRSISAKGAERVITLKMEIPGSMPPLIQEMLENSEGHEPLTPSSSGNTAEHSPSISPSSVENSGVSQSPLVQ", "settings": "compared with RARα; cited from earlier work"}, "[7]": {"tested_on": "OC mRNA in MC3T3-E1 cultures", "assay": "Northern blotting of osteocalcin (OC) mRNA", "type": "cell-based, mouse", "settings": "MC3T3-E1, 1000 nM", "protocol": "Total RNA was isolated with TriPure Isolation Reagent (Roche Molecular Biochemicals) from MC3T3-E1 cultures under mineralizing conditions at various times after culture initiation. RNA samples were separated by electrophoresis of 15 μg aliquots on a 1% agarose-formaldehyde gel. RNA was then transferred to a Hybond-N nylon membrane (Amersham-Pharmacia Biotech) and cross-linked by UV irradiation. Blots were pre-hybridized in Ultrahyb (Ambion) at 45° C. for at least 1 hr. A radiolabeled rat cDNA probe to OC (provided by J. E. Aubin, University of Toronto) was synthesized by random priming. Hybridizations were carried out overnight in Ultrahyb at 42° C. Following hybridization, blots were washed twice with 2×SSC, 0.1% SDS containing buffer for 5 min each at 42° C., followed by two washes in 0.1×SSC, 0.1% SDS for 15 min each at 42° C. and exposed to BioMax X-ray film at −80° C. for 24 hr."}, "[8]": {"molecular_target": "T3, RARα (Homo sapiens, UniProt P10276)", "T3 sequence (P10276 1-462)": "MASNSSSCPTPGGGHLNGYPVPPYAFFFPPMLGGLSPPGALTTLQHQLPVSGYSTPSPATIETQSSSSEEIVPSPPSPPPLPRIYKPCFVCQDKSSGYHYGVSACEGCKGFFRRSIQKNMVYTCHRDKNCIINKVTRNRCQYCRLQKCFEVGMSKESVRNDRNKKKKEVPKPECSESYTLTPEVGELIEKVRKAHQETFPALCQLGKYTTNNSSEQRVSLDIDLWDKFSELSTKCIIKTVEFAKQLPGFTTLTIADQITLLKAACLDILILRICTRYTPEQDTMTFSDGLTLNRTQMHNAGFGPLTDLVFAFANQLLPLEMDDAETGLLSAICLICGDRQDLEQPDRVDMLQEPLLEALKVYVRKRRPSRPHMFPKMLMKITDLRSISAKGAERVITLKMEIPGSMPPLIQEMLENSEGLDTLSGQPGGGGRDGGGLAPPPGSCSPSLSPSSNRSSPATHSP", "settings": "cited from earlier work"}, "[9]": {"tested_on": "normal human osteoblasts", "assay": "Normal human osteoblast cultures, cell death and cell number (PI, Hoechst 33342)", "type": "cell-based", "settings": "1000 nM, 10 days, versus control cultures", "protocol": "Normal human osteoblast (NHO) were derived from the long bones of a human donor. The cells were purchased from Clonetics (BioWhittaker Company) and cultured according to their protocols with media and serum obtained from Clonetics. Ligands were added to the cell cultures once the cells had reached confluence. Cells were stained with Hoechst 33342, a DNA stain, to allow visualization of the cell nuclei and allow assessment of cell number (the cell nuclei appear white) (FIGS. 7A-C). FIGS. 7D-F the cells were stained with propidium iodide (a membrane impermeant nucleic acid stain) to allow visualization of dead or dying cells."}},
  "data": [
    {"smiles": "C=C1/C(=C\\C=C2/CCC[C@]3(C)[C@@H]([C@H](C)CCCC(C)(C)O)CC[C@@H]23)C[C@@H](O)C[C@@H]1O", "note": "[1,25 VD3, 1α,25-dihydroxy vitamin-D3]", "values": [
      {"measurement": "amount of Alizarin Red-staining", "setting": "[1]; MC3T3-E1, 28 days, 0.1 nM", "result": "decrease in the amount of Alizarin Red-staining"},
      {"measurement": "mineralization (Alizarin Red S staining), concentration dependence", "setting": "[1]", "result": "concentration-dependent decrease in mineralization"},
      {"measurement": "cell viability (MTT)", "setting": "[2]; MC3T3-E1, 60 hr, individual ligand", "result": "decreased cell viability"},
      {"measurement": "potency in raising PI-stained bodies, compared with the RAR-agonist", "setting": "[3]; MC3T3-E1, over the concentration range examined", "result": "greater potency than the RAR-agonist"},
      {"measurement": "number of PI-stained cells (cell death)", "setting": "[3]", "result": "greater number of PI-stained bodies"}
    ]},
    {"smiles": "CC1=C(/C=C/C(C)=C\\C=C\\C(C)=C\\C(=O)O)C(C)(C)CCC1", "note": "[9-cis RA, 9-cis retinoic acid]", "values": [
      {"measurement": "cell viability", "setting": "[2]", "result": "concentration-dependent decrease in cell viability"},
      {"measurement": "number of PI-stained cells (cell death)", "setting": "[3]", "result": "stimulate cell death"}
    ]},
    {"smiles": "Cc1ccc(C2=CC(C)(C)Oc3c(Br)cc(C(=O)Nc4ccc(C(=O)O)c(F)c4)cc32)cc1", "note": "[AGN194301, 2-Fluoro-4-[(1-(8-bromo-2,2-dimethyl-4-(4-methylphenyl)-2-H-chromen-6-yl)-methanoyl)-amino]-benzoic acid]", "values": [
      {"measurement": "mineral deposition (Von Kossa, calcium phosphate)", "setting": "[4]; 19 days of ligand treatment", "result": "stimulates mineral deposition"},
      {"measurement": "affinity for RARγ", "setting": "[5]", "result": "lower affinity"},
      {"measurement": "affinity for RARβ", "setting": "[6]", "result": "lower affinity"},
      {"measurement": "bone formation relative to control cultures", "setting": "[1]; 100 nM AGN194301 added to cultures treated with 10 nM 1,25 VD3", "result": "~70", "unit": "%"},
      {"measurement": "increase of Alizarin Red S staining over untreated controls", "setting": "[1]; MC3T3-E1, 28 days, 10 nM", "result": "approximately 3 fold"},
      {"measurement": "culture surface area stained with Alizarin Red S", "setting": "[1]; MC3T3-E1, 28 days, 1 μM, control cultures approximately 18%", "result": "approximately 95%"},
      {"measurement": "mineralization (Alizarin Red S staining), concentration dependence", "setting": "[1]", "result": "concentration-dependent increase in Alizarin Red S staining"},
      {"measurement": "OC expression", "setting": "[7]", "result": "stimulated OC expression"},
      {"measurement": "culture time after which strong OC mRNA expression became evident", "setting": "[7]; wild-type cultures 18 days", "result": 12, "unit": "days"},
      {"measurement": "affinity for RARα", "setting": "[8]", "result": "high affinity"},
      {"measurement": "antagonism of RARα", "setting": "[8]", "result": "potent antagonist"},
      {"measurement": "number of PI-positive cells relative to 1,25 VD3 treated culture", "setting": "[3]; AGN194301 added to 1,25 VD3-treated cultures, 36 hr", "result": "less than 20%"},
      {"measurement": "appearance of PI-positive cells", "setting": "[3]; MC3T3-E1, AGN194301 alone", "result": "no appreciable effect"}
    ]},
    {"smiles": "C/C(=C\\c1ccc(C(=O)O)cc1)c1ccc2c(c1)C(C)(C)CCC2(C)C", "note": "[TTNPB, 4-[E-2-(5,6,7,8-Tetrahydro-5,5,8,8-tetramethyl-2-naphthalenyl)-1-propenyl] benzoic acid]", "values": [
      {"measurement": "cell viability", "setting": "[2]", "result": "concentration-dependent decrease in cell viability"},
      {"measurement": "number of PI-stained cells (cell death)", "setting": "[3]", "result": "stimulate cell death"}
    ]},
    {"smiles": "CC1=C(/C=C/C(C)=C/C=C/C(C)=C/C(=O)O)C(C)(C)CCC1", "note": "[all-trans RA, all-trans retinoic acid]", "values": [
      {"measurement": "alizarin red staining", "setting": "[4]; fifteen day old cultures", "result": "reduced alizarin red staining"},
      {"measurement": "cell viability", "setting": "[2]", "result": "concentration-dependent decrease in cell viability"},
      {"measurement": "cell death (PI staining)", "setting": "[9]", "result": "increased cell death"},
      {"measurement": "cell number (Hoechst 33342)", "setting": "[9]", "result": "decreased cell number"},
      {"measurement": "number of PI-stained cells (cell death)", "setting": "[3]", "result": "stimulate cell death"}
    ]}
  ]
}
